A short description of data set [1]: Induction of singlet oxygen production in ethanol assessed as change in absorption spectra at 380nm under photoirradiation with 550nm and 10 J/cm^2 LED light for 2 to 20 mins by ABDA based microplate reader analysis. In kind it is functional. As to conditions: time 2-20 min.
The nature of data set [2]: Induction of superoxide anion radical production in aqueous solution assessed as increase in fluorescence intensity at 5 uM under photoirradiation with 550nm and 10 J/cm^2 LED light and measured after 8 mins by DHR123 based fluorescence spectroscopic analysis.
Data set [3] in a line: Drug uptake in human MDA-MB-231 cells assessed as increase in intracellular uptake at 5 uM incubated for 2 hrs by flow cytometry analysis. As to conditions: mda-mb-231, 2 h. In kind it is ADME, cell-based. (In general: A flow cytometer gives signals particle by particle.)
Data set [4] has as its system 4T1. The experiment in a line: Anticancer activity against mouse 4T1 cells assessed as fold increase in cleaved caspase-3 protein expression at 1 uM preincubated for 2 hrs followed by photoirradiation with 500 to 700nm and 12 J/cm^2 LED light and measured after 24 hrs by Western blot analysis relative to control. In kind it is functional. As to conditions: time 26 hrs.

Data set [5] can be described thus: Photostability of compound in EtOH assessed as compound decomposition at 50 uM incubated for 5 to 20 mins under photoirradiation with 550nm and 10 J/cm^2 LED light by UV-visible spectroscopic analysis. In kind it is physicochemical. As to conditions: time 5-20 min.
The nature of data set [6]: Drug localization in lysosome of human MDA-MB-231 cells assessed as increase in apparent yellow fluorescent signal at 5 uM incubated for 2 hrs by Lyso-Tracker Green, ER-Tracker Green, Mito-Tracker Green and Hoechst 33342 staining based confocal laser scanning microscopy. The class given is ADME, subcellular. To be noted: mda-mb-231, 2 h.
Data set [7] has as its system MDA-MB-231. The experiment in a line: Induction of intracellular ROS generation in human MDA-MB-231 cells assessed as fold increase in intracellular ROS level at 2.5 uM incubated for 2 hrs followed by under photoirradiation with 500 to 700nm and 12 J/cm^2 LED light by DCFH-DA staining based fluorometric analysis relative dark control group. In kind it is functional.

In data set [8] the test system is 4T1. The experiment in a line: Anticancer activity against mouse 4T1 cells assessed as fold increase in gamma-H2A.X protein expression at 1 uM preincubated for 2 hrs followed by photoirradiation with 500 to 700nm and 12 J/cm^2 LED light and measured after 24 hrs by Western blot analysis relative to control. The class given is functional. As to conditions: time 26 hrs.

The nature of data set [9]: Drug uptake in human MDA-MB-231 cells assessed as increase in intracellular uptake at 5 uM incubated for 10 mins by flow cytometry analysis. The class given is ADME, cell-based. As to conditions: mda-mb-231, 10 min.
The test system of data set [10] is MDA-MB-231. The experiment in a line: Anticancer activity against human MDA-MB-231 cells assessed as reduction in cell viability incubated for 24 hrs in presence of irradiation with 500 to 700nm and 12 J/cm^2 LED light by CCK-8 assay. In kind it is functional, cell-based. As to conditions: MDA-MB-231, light or radiation study. For orientation: Tetrazolium assays rely on reduction of a dye to a coloured formazan, in cell work by metabolically active cells.

Data set [11] relates to 4T1. Nature of the data set: Anticancer activity against mouse 4T1 cells assessed as reduction in cell viability at 1 uM incubated for 24 hrs under photoirradiation with 500 to 700nm and 12 mW/cm^2 LED light by CCK-8 assay. In kind it is functional, cell-based.
In data set [12] the test system is MDA-MB-231. The experiment in a line: Phototoxicity against human MDA-MB-231 cells assessed as reduction in cell viability incubated for 24 hrs in presence of irradiation with 500 to 700nm and 12 J/cm^2 LED light by CCK-8 assay. In kind it is functional, cell-based.
Data set [13] concerns 4T1. The experiment in a line: Anticancer activity against mouse 4T1 cells assessed as reduction in cell viability incubated for 24 hrs in presence of irradiation with 500 to 700nm and 12 J/cm^2 LED light by CCK-8 assay. The class given is functional, cell-based. As to conditions: 4T1, light or radiation study.
For data set [14], the system named is MDA-MB-231. Nature of the data set: Anticancer activity against human MDA-MB-231 cells assessed as reduction in cell viability incubated for 24 hrs by CCK-8 assay. In kind it is functional, cell-based. As to conditions: MDA-MB-231, 24 h.
The test system of data set [15] is MDA-MB-231. The experiment in a line: Anticancer activity against human MDA-MB-231 cells assessed as reduction in cell viability at 1 uM incubated for 24 hrs in presence of irradiation with 500 to 700nm and 12 J/cm^2 LED light by CCK-8 assay. The class given is functional, cell-based.
Data set [16] has as its system 4T1. Nature of the data set: Anticancer activity against mouse 4T1 cells assessed as reduction in cell viability at 0.01 to 10 uM incubated for 24 hrs by CCK-8 assay. In kind it is functional, cell-based. To be noted: dose 0.01-10 µM.
For data set [17], the system named is 4T1. Nature of the data set: Anticancer activity against mouse 4T1 cells assessed as reduction in cell viability preincubated for 12 hrs followed by photoirradiation with 500 to 700nm and 12 J/cm^2 LED light for 24 hrs by CCK-8 assay. The class given is functional, cell-based. As to conditions: 4T1, light or radiation study.
The nature of data set [18]: Drug metabolism in human MDA-MB-231 cells assessed as increase in SR expression at 5 uM incubated for 12 hrs by flow cytometry analysis. The class given is ADME, cell-based. To be noted: mda-mb-231, 12 h.
Data set [19] can be described thus: Stability of compound in H2O2 at 10 uM incubated for 30 mins by fluorescence assay. In kind it is physicochemical. To be noted: 0.5 h.
Data set [20] in a line: Stability of compound in gamma-glutamyl transpeptidase at 10 uM incubated for 30 mins by fluorescence assay. The class given is physicochemical. To be noted: 0.5 h.
Data set [21] can be described thus: Stability of compound in GSH at 10 uM incubated for 30 mins by fluorescence assay. In kind it is physicochemical. To be noted: 0.5 h.
Data set [22] in a line: Drug metabolism in carboxylesterase (unknown origin) assessed as formation of active photosensitizer 6-amino-5-iodo-1H-phenalen-1-one at 10 uM under by LC-MS/MS analysis assay. The class given is ADME. As to conditions: human.
The test system of data set [23] is MDA-MB-231. Nature of the data set: Anticancer activity against human MDA-MB-231 cells assessed as number of dead cells at 2.5 uM preincubated for 12 hrs followed by photoirradiation with 500 to 700nm and 12 J/cm^2 LED light for 10 mins by calcein-AM and propidium iodide staining based flow cytometry. To be noted: time 12.2 hrs. In kind it is functional, cell-based.

A short description of data set [24]: Drug metabolism in carboxylesterase (unknown origin) assessed as formation of active photosensitizer 6-amino-5-iodo-1H-phenalen-1-one by measuring increase in fluorescence at 610nM at 10 uM under by fluorescence assay. In kind it is ADME. As to conditions: human.
For data set [25], the system named is MDA-MB-231. Nature of the data set: Anticancer activity against human MDA-MB-231 cells assessed as reduction in cell viability preincubated for 12 hrs followed by photoirradiation with 500 to 700nm and 12 J/cm^2 LED light for 24 hrs by CCK-8 assay. To be noted: MDA-MB-231, light or radiation study. In kind it is functional, cell-based.
The nature of data set [26]: Induction of singlet oxygen production in ethanol assessed as singlet oxygen quantum yield at 410nm under photoirradiation with 550nm and 10 mW/cm^2 LED light for 10 to 80 secs by DPBF based microplate reader analysis. In kind it is functional. To be noted: time 10-80 sec.
Data set [27] concerns MDA-MB-231. Nature of the data set: Anticancer activity against human MDA-MB-231 cells assessed as reduction in cell viability at 0.01 to 10 uM incubated for 24 hrs by CCK-8 assay. In kind it is functional, cell-based. As to conditions: dose 0.01-10 µM.
A short description of data set [28]: Stability of compound in various pH. The class given is physicochemical.
For data set [29], the system named is MDA-MB-231. The experiment in a line: Anticancer activity against human MDA-MB-231 cells assessed as number of dead cells at 2.5 uM incubated for 12 hrs by calcein-AM and propidium iodide staining based flow cytometry. The class given is functional, cell-based.

Active and inactive are the calls of the source. The rule behind the calls is not given here.

`Nc1ccc2c3c(cccc13)C(=O)C=C2`: in data set [1], the outcome was inactive.
By IC50 is commonly meant the concentration that inhibits the measured activity by half. Turning to `Nc1c(I)cc2c3c(cccc13)C(=O)C=C2`, the outcome in data set [2], in data set [1], in data set [11], in data set [12] and in data set [15] was Active. For the same compound, the Drug uptake entry in data set [3], in data set [6] and in data set [9] was “Active” in each case. The “fold change (FC)” value amounted to 3.09 in data set [4], 5.54 in data set [7] and 2.36 in [8]. Besides, the Stability entry in data set [5] was “Stable”. The results for the IC50 in data set [10], in [13] and in [14] were 0.66 µM, 0.59 µM and over 50 µM, respectively.
For the compound `O=C(Nc1c(I)cc2c3c(cccc13)C(=O)C=C2)c1ccccc1`, the result in data set [16], in data set [23] and in data set [27] was Active. Besides, the IC50 stood at 4.8 µM in data set [17] and 4 µM in data set [25]. Besides, the Drug metabolism entry in data set [18], in [22] and in data set [24] was “Metabolite_Detected” throughout. Also, the Stability entry in data set [19], in data set [20], in data set [5], in data set [21] and in data set [28] was “Stable” in each case. Also, the Activity in [26] amounted to 0.1. Also, in data set [29], the outcome was inactive.

Values taken from ChEMBL document CHEMBL5321227, “Lysosome-targeting phenalenones as efficient type I/II photosensitizers for anticancer photodynamic therapy” (Eur J Med Chem, 2023).
